Source: ChEMBL document CHEMBL1201862, “PubChem BioAssay data set” (2004)
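Grown in 96-well plates, cells were treated for 48 hours with each compound at five concentrations. Insufficient inhibition: endpoint recorded as highest concentration tested. GI50 marks 50% less growth.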 The source made the active and inactive calls. No stated cut-off is given here; in the data, active = GI50 up to about 1.1 µM and inactive = higher.

Columns and labels:
Assay in all cases: NCI anticancer screen, dose series, 48 h
A498 = tested on: A498
ACHN = tested on: ACHN
BT-549 = tested on: BT-549
CAKI-1 = tested on: CAKI-1
K562 = tested on: K562
KM12 = tested on: KM12
M14 = tested on: M14
NCI-H226 = tested on: NCI-H226
NCI/ADR-RES = tested on: NCI/ADR-RES
RPMI-8226 = tested on: RPMI-8226
SK-MEL-28 = tested on: SK-MEL-28
SK-MEL-2 = tested on: SK-MEL-2
SK-MEL-5 = tested on: SK-MEL-5
SNB-19 = tested on: SNB-19
T47D = tested on: T47D
U-251 = tested on: U-251
UO-31 = tested on: UO-31
CCRF-CEM = tested on: CCRF-CEM
IGROV-1 = tested on: IGROV-1
MDA-N = tested on: MDA-N

| SMILES | GI50 (A498) | GI50 (ACHN) | GI50 (BT-549) | GI50 (CAKI-1) | GI50 (K562) | GI50 (KM12) | GI50 (M14) | GI50 (NCI-H226) | GI50 (NCI/ADR-RES) | GI50 (RPMI-8226) | GI50 (SK-MEL-28) | GI50 (SK-MEL-2) | GI50 (SK-MEL-5) | GI50 (SNB-19) | GI50 (T47D) | GI50 (U-251) | GI50 (UO-31) | GI50 (CCRF-CEM) | GI50 (IGROV-1) | GI50 (MDA-N) |
| --- | --- | --- | --- | --- | --- | --- | --- | --- | --- | --- | --- | --- | --- | --- | --- | --- | --- | --- | --- | --- |
| CC(C)OC(=O)[C@@H](O)[C@H](CO)C1=CC([Si](C)(C)c2ccccc2)=CON1 | > 100 µM (inactive) | > 100 µM (inactive) | > 100 µM (inactive) | > 100 µM (inactive) | > 100 µM (inactive) | > 100 µM (inactive) | > 100 µM (inactive) | > 100 µM (inactive) | > 100 µM (inactive) | > 100 µM (inactive) | > 100 µM (inactive) | > 100 µM (inactive) | > 100 µM (inactive) | > 100 µM (inactive) | > 100 µM (inactive) | > 100 µM (inactive) | > 100 µM (inactive) |  |  |  |
| CC(O)C1CC1(CO)CNc1cc(Cl)nc(N)n1 (stereo unspecified) |  | > 100 µM (inactive) | > 100 µM (inactive) | > 100 µM (inactive) | > 100 µM (inactive) | > 100 µM (inactive) |  | > 100 µM (inactive) | > 100 µM (inactive) | > 100 µM (inactive) | > 100 µM (inactive) | > 100 µM (inactive) | > 100 µM (inactive) | > 100 µM (inactive) | > 100 µM (inactive) | > 100 µM (inactive) | > 100 µM (inactive) | > 100 µM (inactive) | > 100 µM (inactive) | > 100 µM (inactive) |
| COc1ccc(N2C(=O)C3ON(Cc4ccc(CC(N)=O)cc4)C(c4c5ccccc5c(C)c5ccccc45)C3C2=O)cc1 (stereo unspecified) | 46.1 µM (inactive) | 21.5 µM (inactive) | 30.1 µM (inactive) | 20.7 µM (inactive) | 3.27 µM (inactive) | 12.1 µM (inactive) | 24.3 µM (inactive) |  | 35.8 µM (inactive) |  | > 100 µM (inactive) | 20.1 µM (inactive) |  | 27.9 µM (inactive) | 17.6 µM (inactive) | 22.8 µM (inactive) | 16.4 µM (inactive) | 12.4 µM (inactive) | 27.3 µM (inactive) | 22.3 µM (inactive) |
| COc1cc(S(=O)(=O)Nc2ccc(-c3csc(N4C(=O)C(Cl)C4c4ccccc4)n3)cc2)ccc1Cl (stereo unspecified) | 25.9 µM (inactive) | 60 µM (inactive) | 26.9 µM (inactive) | > 100 µM (inactive) | 32.2 µM (inactive) | 44.2 µM (inactive) | 24 µM (inactive) |  | > 100 µM (inactive) | 31.4 µM (inactive) | 66.5 µM (inactive) | > 100 µM (inactive) | 25.2 µM (inactive) | > 100 µM (inactive) | 28.4 µM (inactive) |  | 25 µM (inactive) | 3.37 µM (inactive) | 4.63 µM (inactive) | 37.5 µM (inactive) |
| O=C(NCCCN1CCN(CCCNC(=O)Nc2cccc3ccccc23)CC1)Nc1cccc2ccccc12 | 15.3 µM (inactive) | 16.3 µM (inactive) | 13.2 µM (inactive) | 16.2 µM (inactive) | 19.9 µM (inactive) | 19.3 µM (inactive) | 16.3 µM (inactive) |  | 84.9 µM (inactive) | 17.3 µM (inactive) | 14.4 µM (inactive) | 18.7 µM (inactive) | 16.6 µM (inactive) | 18.6 µM (inactive) | 13.2 µM (inactive) | 5.46 µM (inactive) | 16.6 µM (inactive) | 22.2 µM (inactive) | 17.3 µM (inactive) | 15.6 µM (inactive) |
| O=C1NC(O)c2cc3ccccc3cc2O1 (stereo unspecified) |  | > 100 µM (inactive) | 26.4 µM (inactive) |  | 34.9 µM (inactive) | > 100 µM (inactive) | 38.6 µM (inactive) | > 100 µM (inactive) | 51.4 µM (inactive) | 38.5 µM (inactive) | 69.8 µM (inactive) |  | 56.5 µM (inactive) | 60 µM (inactive) | 25.5 µM (inactive) | 26.5 µM (inactive) | > 100 µM (inactive) | 29.2 µM (inactive) | 69.5 µM (inactive) |  |
| COc1ccc(C(=C(I)c2ccccc2)c2ccc(OC)cc2)cc1 |  | > 100 µM (inactive) | > 100 µM (inactive) | > 100 µM (inactive) | > 100 µM (inactive) | > 100 µM (inactive) | > 100 µM (inactive) | > 100 µM (inactive) | > 100 µM (inactive) | > 100 µM (inactive) | > 100 µM (inactive) | > 100 µM (inactive) | 49.8 µM (inactive) | > 100 µM (inactive) | 19.1 µM (inactive) | > 100 µM (inactive) | > 100 µM (inactive) | > 100 µM (inactive) | > 100 µM (inactive) | > 100 µM (inactive) |
| CCN(C(=O)N[C@@H](Cc1ccccc1)C(=O)N[C@@H](CC(C)C)C(=O)OC)c1ccccc1 |  | 21.3 µM (inactive) | 57.1 µM (inactive) | 32.6 µM (inactive) | 31.3 µM (inactive) | 29.4 µM (inactive) | 8.24 µM (inactive) | 19.5 µM (inactive) | 26.5 µM (inactive) | 20.1 µM (inactive) | 17.5 µM (inactive) | 61 µM (inactive) |  | 77.6 µM (inactive) | 77.6 µM (inactive) | 25.9 µM (inactive) | 18.1 µM (inactive) | 19.3 µM (inactive) | 17 µM (inactive) | 69.3 µM (inactive) |
| Oc1cc(N2CCCC2)ccc1/C=N/N1C(=S)N(c2ccccc2)C(=N\c2ccccc2)/C1=N/c1ccccc1 |  | > 100 µM (inactive) | > 100 µM (inactive) | > 100 µM (inactive) | > 100 µM (inactive) | > 100 µM (inactive) | 34.2 µM (inactive) | 58.6 µM (inactive) | > 100 µM (inactive) | > 100 µM (inactive) | > 100 µM (inactive) | > 100 µM (inactive) | 73.3 µM (inactive) | 51.4 µM (inactive) | > 100 µM (inactive) | 31.2 µM (inactive) | > 100 µM (inactive) |  | > 100 µM (inactive) | > 100 µM (inactive) |
| COC(=O)C1CCN(C(=O)OC(C)(C)C)CC1 | > 100 µM (inactive) | > 100 µM (inactive) | 0.993 µM (active) | > 100 µM (inactive) |  | > 100 µM (inactive) | > 100 µM (inactive) |  | > 100 µM (inactive) | > 100 µM (inactive) | > 100 µM (inactive) | > 100 µM (inactive) | > 100 µM (inactive) | > 100 µM (inactive) | > 100 µM (inactive) | > 100 µM (inactive) | > 100 µM (inactive) | > 100 µM (inactive) | > 100 µM (inactive) | > 100 µM (inactive) |
| CC/C(=C\c1ccc(OC)cc1)c1ccc(OC)cc1 | > 100 µM (inactive) | > 100 µM (inactive) | 75.3 µM (inactive) | > 100 µM (inactive) | > 100 µM (inactive) | > 100 µM (inactive) | 72.6 µM (inactive) | > 100 µM (inactive) | > 100 µM (inactive) | 86.3 µM (inactive) |  | 65.6 µM (inactive) | 30.1 µM (inactive) | > 100 µM (inactive) |  | > 100 µM (inactive) | > 100 µM (inactive) | > 100 µM (inactive) | > 100 µM (inactive) | > 100 µM (inactive) |
